“And” between values parts separate entries of the source, which are not always exact repeats. Identical values can stand only once.
Tests used:
[1] = Stability of charged spiro and cyclopropenium compounds on storage; assay type: physicochemical
Description: The state of charge on discharge was 87%. […] Additionally, the calendar fade of the molecule was improved over certain previously reported high voltage organic radicals.

[2] = Crossover of active molecules through the cellulose dialysis membrane in an H-cell (UV-Vis); assay type: physicochemical
Experimental: The present example tested whether the membrane is amenable to large temperature excursions and to higher-voltage second generation compounds. The membrane was exposed to high (110° C.) and low (−20° C.) temperatures, as well as to strong reducing and oxidizing conditions, after which, dialysis was performed. Details are disclosed below. For example, the membrane was soaked in a solution of sodium naphthalenide (approximately −3.0 V vs Fc^0/+) and subsequently assembled an H-cell with this membrane. One chamber of the H-cell was filled with [PDI][TFSI]2 in acetonitrile (FIG. 1), while the other contained pure acetonitrile. [PDI][TFSI]2 was used for crossover experiments due to its smaller sized and strong absorption. […] Moreover, typical aqueous cells would not be operable at these extreme temperatures.
The present example next quantitatively assessed the impact of these treatments on the membrane's performance under battery operating conditions. […] To quantify the amount of crossover, UV-Vis spectra of the [Fc4] chamber was taken. […] Additionally, the low concentration cell above (FIG. 7D) was dismantled after cycling and checked for crossover. […] The key finding is that the cellulose based membrane is effective in organic solvents over long periods of time, stable to a >3 V voltage window, and stable to temperatures outside the range available for aqueous systems.
The membranes were soaked in water for 1 h before treatment. For high temperature, the membrane was rinsed with propylene carbonate, placed in propylene carbonate and heated to 110° C. overnight in a vial. For low temperature, the membrane was rinsed with acetonitrile and placed in acetonitrile in a vial in a −20° C. freezer overnight. For oxidizing conditions, the membrane was rinsed with acetonitrile and stirred in nitrosonium tetrafluoroborate (NOBF4, 0.1 M in acetonitrile) for 4 h. For reducing conditions, the membrane was rinsed with anhydrous diglyme, placed in anhydrous diglyme, and sparged for 3 h before being brought into a glove box. It was rinsed in a fresh solution of diglyme before being added to a solution of sodium naphthalenide (0.1 M in diglyme) in a glove box for 1 h. The sodium naphthalenide was a persistent dark green the entire time indicating no quenching of the reagent. A control where the membrane was only soaked in water and rinsed with acetonitrile was also performed.
Following these conditions, [PDI][TFSI]2 (20 mg) and LiPF6 (60 mg) in acetonitrile were added to one side of the H-cell. […] The blank side was colorless for all conditions except nitrosonium tetrafluoroborate, where a minimal amount of fluorescence could be seen. The control H-cell was monitored for crossover for a further 12 days, at which point the absorbance was measured by UV-visible spectroscopy and the amount determined using the molar absorptivity of [PDI][TFSI]2 (0.05% over 12 days, FIG. 10 and FIG. 11).
After these qualitative experiments, membranes treated to the same four conditions as mentioned above were brought into the glovebox in degassed anhydrous solvent and used for cycling experiments with 19 mg [PDI][TFSI]2 and 9 mg [Fc4] in 0.5M LiPF6 (FIG. 9C). The cells were run at a 1 C current (0.7 mA) for 12 cycles. At the end of the experiment, the UV-visible spectrum was taken of the [Fc4] side. […]

[3] = Solubility / maximum concentration of the electrolytes in organic solvent
[4] = acetonitrile vs pure acetonitrile, stirring overnight
[5] = cycling H-cell, 1 C, 12 cycles, 0.5 M LiPF6, UV-Vis of [Fc4] side

## dimethylpiperidine cyclopropenium
[1]; 3 months out of glovebox
  persistence of charged state: still charged

## perylene diimide trifluoromethane sulfonimide [[PDI][TFSI]2]
[2]; [4]
  visible crossover, NOBF4-treated membrane: slight fluorescence from crossover
  visible crossover, sodium naphthalenide-treated membrane: no detectable crossover
[2]; control H-cell, acetonitrile with LiPF6, over 12 days
  crossover, control membrane: 0.05%
[2]; [5]
  crossover, NOBF4-treated (oxidizing) membrane: 1.25%
  crossover, cold (−20° C.) treated membrane: < 0.05% and 0.032%
  crossover, hot (110° C.) treated membrane: < 0.05% and 0.028%
  crossover, sodium naphthalenide-treated (reducing) membrane: < 0.05% and 0.038%
[2]; low concentration cell dismantled after >30 days and >250 cycles
  crossover after long-term cycling: 0.2%
[3]
  concentration accessible in acetonitrile: 1 M electron

## spiro-ethylphthalimide [spirophthalimide]
[1]; 1 week of charge
  degradation in charged state (1H NMR): No degradation

— US11289729B2, “Redox flow batteries and compounds for battery application” (THE TRUSTEES OF COLUMBIA UNIVERSITY IN THE CITY OF NEW YORK, priority 2017, dated 2022)
